Measurements: patent publication US20230149419A1, “COMPOSITION FOR PREVENTING OR TREATING NEUROINFLAMMATORY DISEASES, COMPRISING CHLORPROMAZINE” (GliaCellTech Inc., priority 2020, published 2023)

Experiments:
[1] = system: primary microglia from Psen2^N141I/+ mice with Alzheimer's disease; assay: LPS-induced inflammatory cytokine secretion in primary microglia (ELISA), Psen2 mutation; format: cell-based, mouse
Experimental: (§1) Primary microglia were obtained from wild-type mice and Psen2^N141I/+ mice with Alzheimer's disease. Specifically, brains were excised from neonatal mice 1 to 3 days old and cells were obtained therefrom. The cells were cultured in Dulbecco's modified Eagle's medium (DMEM, Corning) supplemented with 10% heat-inactivated fetal bovine serum (HI-FBS, Hyclone) and 1% penicillin-streptomycin (Hyclone). Primary microglia were isolated in vitro by tapping after 12 days of culturing. Purity of primary microglia was estimated by immunostaining with an antibody against Iba-1, which is a microglial marker.
(§2) In this regard, the primary microglia were preincubated with or without 0.5 μM chlorpromazine for 30 min before LPS treatment. Anti-inflammatory effects were compared and analyzed between the test groups.

[2] = system: primary microglia from Psen2^N141I/+ mice with Alzheimer's disease; assay: LPS-induced cytokine mRNA expression in primary microglia (qRT-PCR), Psen2 mutation; format: cell-based, mouse
Experimental: as §1, §2
The culture of each group was measured for microglial mRNA expression levels of the target cytokines by qRT-PCR (quantitative RT-PCR). Specifically, RNA was isolated from the microglia and cDNA was synthesized using an ImProm-II Reverse Transcriptase kit (Promega). PCR primers were commercially available (Cosmo Genetech). qRT-PCR was performed using Taq Polymerase (Invitrogen) and mouse cDNA-specific primers listed in Table 6, below. In addition, TOPreal™ qPCR 2×PreMIX (SYBR Green with low ROX) (Enzynomics) was used. Amplification (50 cycles) was performed for 50 cycles with all primers in a CFX96 Real-Time System (Bio-Rad). Actb was used as the reference genes for normalization.

[3] = system: primary microglia from wild-type mice; assay: IL-1β secretion after LPS and inflammasome activation (nigericin/ATP), wild-type microglia; format: cell-based, mouse; details: chlorpromazine 0.5 μM 30 min, LPS 1 μg/mL 3 h
Experimental: as §1
IL-1β is a cytokine released from an activated inflammasome complex in microglia. For secretion of the cytokine, additional treatment with a drug for inducing activation of the inflammasome complex is necessary following LPS-induced inflammation. […] Application of the test groups thus obtained could divide groups 5 to 8 of Example 5-2 into 10 subgroups according to treatment with nigericin and ATP.

[4] = system: primary microglia from wild-type (WT) mice; assay: fAβ42-induced cytokine secretion in primary microglia (ELISA), wild-type; format: cell-based, mouse; details: 4 μM fAβ42, 0.5 μM chlorpromazine (Group 24)
Experimental: as §1
Specifically, FITC-conjugated amyloid beta 1-42 was prepared according to the follow reference (Cho, M.-H. et al. “Autophagy in microglia degrades extracellular β-amyloid fibrils and regulates the NLRP3 inflammasome.” Autophagy 10, 1761-1775 (2014)).
The primary cultures of microglia prepared in Example 5-1 from the Psen2 mutation (KI/+) mouse model of Alzheimer's disease and the wild-type (WT) mice were directly treated with 4 μM of the fibrilized amyloid beta 1-42 (fAβ42), followed by incubation with or without 0.5 μM chlorpromazine.

[5] = system: Nr1d1 mRNA in primary microglia from wild-type mice; assay: Nr1d1 mRNA expression in primary microglia (qRT-PCR), wild-type; format: cell-based, mouse
Experimental: Effects were analyzed in the experimental group not treated with chlorpromazine on the obtained microglia and the experimental group treated with chlorpromazine at a dose of 0.5 μM.

[6] = system: REV-ERBα protein in primary microglia from wild-type mice; assay: REV-ERBα protein expression in primary microglia (western blotting), wild-type; format: cell-based, mouse
Experimental: (§3) Effects were analyzed in the experimental group not treated with chlorpromazine on the obtained microglia and the experimental group treated with chlorpromazine at a dose of 0.5 μM. For analysis of REV-ERBα protein expression levels, western blotting was carried out. Specifically, primary microglia were lysed in a 1% Triton X-100 lysis buffer (1% Triton X-100, 250 mM sucrose, 1 mM EDTA, 1 mM phenylmethylsulfonyl fluoride, and 50 mM NaCl in 20 mM Tris-HCl, pH 7.4) with 1×protease and phosphatase inhibitors (Thermo Fisher Scientific) and 0.1 M dithiothreitol (Sigma-Aldrich). The cell lysates were separated by sodium dodecyl sulfate-polyacrylamide gel electrophoresis and transferred to polyvinylidene fluoride membranes. The membranes were incubated with the appropriate primary antibodies, and bound antibodies were detected by species-specific, horseradish peroxidase-conjugated secondary antibodies. Chemiluminescence detection was performed to analyze the protein bands of interest.

[7] = system: REV-ERBα protein in primary microglia from Psen2 mouse model of Alzheimer's disease; assay: REV-ERBα protein expression in primary microglia (western blotting), Psen2 mutation; format: cell-based
Experimental: as §3

[8] = system: Psen2^N141I/+ Alzheimer's disease mice; assay: Serum cytokine levels after low-concentration LPS injection, Psen2 mutation mice
Experimental: To investigate neuroinflammation at various concentrations of LPS, blood was extracted from cheek veins in the wild-type mice in group 2 and the mouse model of Alzheimer's disease in group 4 20 hours after the injection of LPS. The sera obtained by centrifugation were quantitatively analyzed for IL-6, TNFα, CCL2, CXCL1, and CCL5 by using ELISA kit (R&D Systems) according to the manufacturer's instruction. In addition, the same procedure was conducted for the wild-type mice without LPS injection of group 1 and the Psen2^N141I mutation mouse model of Alzheimer's disease of group 3 to obtain sera which were then analyzed for the proteins by using the ELISA kit according to the manufacturer's instruction.
The wild-type mice and the Psen2 mutation mouse model of Alzheimer's disease obtained in Example 1 were intraperitoneally injected with chlorpromazine (0.25 mg/body weight kg) at 14:00 and then with such a low concentration of LPS (0.35 μg/kg) as to be ineffective for inflammation in wild-type mice at 18:00 (Zeitgeber time light-on at 11:00 and 07:00). After 20 hours, the mice were monitored for inflammatory responses and memory behavior. The concentration of chlorpromazine (0.25 mg/body weight kg) used in this assay is tens- to hundreds-fold lower than those conventionally used as an antipsychotic (25 mg/injection, 3 times/day).
After the experiment conducted as in the scheme of FIG. 11A, the wild-type and the Psen2^N141I/+ Alzheimer's disease mice, both intraperitoneally injected with LPS, were analyzed for inflammatory response according to chlorpromazine treatment as measured for serum levels of the circadian clock-controlled cytokines (IL-6, CXCL1, CCL2, and CCL5) by ELISA as in Example 2.

[9] = KI/+ microglia, LPS 1 μg/mL 12 h, preincubated 0.5 μM chlorpromazine 30 min (Group 8)
[10] = Psen2 mutation microglia, groups 7 vs 8, chlorpromazine 0.5 μM, LPS
[11] = KI/+ microglia, LPS 1 μg/mL 12 h, 0.5 μM chlorpromazine (Group 8)
[12] = WT microglia, no LPS, 0.5 μM chlorpromazine (Group 28), mean±SEM
[13] = Alzheimer's disease model mice, chlorpromazine 0.25 mg/kg i.p., LPS 0.35 μg/kg i.p., 20 h after LPS (Group 40)

## CN(C)CCCN1c2ccccc2Sc2ccc(Cl)cc21 [CPZ, 3-(2-chloro-10H-phenothiazin-10-yl)-N,N-dimethyl-propan-1-amine]
[1]; [9]
  Inflammatory cytokine secreted CCL2: 734.064 pg/mL
  Inflammatory cytokine secreted CCL5: 804.394 pg/mL
  Inflammatory cytokine secreted CXCL1: 924.907 pg/mL
  Inflammatory cytokine secreted IL-6: 2724.458 pg/mL
  Inflammatory cytokine secreted TNF-α: 1532.733 pg/mL
[1]; [10]
  production of IL-6, CXCL1, CCL2, and CCL5 (in words): decrease the production
[1]; across all the groups (WT and KI/+ microglia), chlorpromazine 0.5 μM, LPS
  production of TNF-α (in words): no impacts
[2]; [11]
  Inflammatory cytokine expression Ccl2 (mRNA): 0.670 fold
  Inflammatory cytokine expression Ccl5 (mRNA): 0.730 fold
  Inflammatory cytokine expression Cxcl1 (mRNA): 0.692 fold
  Inflammatory cytokine expression Il-6 (mRNA): 0.538 fold
  Inflammatory cytokine expression Tnf (mRNA): 1.020 fold
[2]; [10]
  mRNA expression of IL-6, CXCL1, CCL2, and CCL5 (in words): decrease the mRNA expression
[2]; across all the groups (WT and KI/+ microglia), LPS
  mRNA level of TNF-α (in words): no impacts
[3]; wild-type microglia (Group 15), Nig(+)/ATP(−), nigericin 10 μM 40 min
  IL-1β secreted: 857.639 pg/mL
[3]; wild-type microglia (Group 17), Nig(−)/ATP(+), ATP 5 mM 40 min
  IL-1β secreted: 1251.571 pg/mL
[4]
  Secreted inflammatory cytokine CCL2: 1062.537 pg/mL
  Secreted inflammatory cytokine CCL5: 1204.562 pg/mL
  Secreted inflammatory cytokine CXCL1: 1237.646 pg/mL
  Secreted inflammatory cytokine IL-6: 1164.200 pg/mL
  Secreted inflammatory cytokine TNF-α: 1218.952 pg/mL
[5]; [12]
  Nr1d1 mRNA expression: 0.860 ± 0.040 fold
[5]; wild-type microglia, chlorpromazine 0.5 μM
  Nr1d1 mRNA expression level (in words): ineffective
[6]; [12]
  REV-ERBα protein expression: 0.956 ± 0.096 fold
[6]; wild-type microglia, group 28
  REV-ERBα protein expression level (in words): no effect
[7]; KI/+ microglia, no LPS, 0.5 μM chlorpromazine (Group 30), mean±SEM
  REV-ERBα protein expression: 0.882 ± 0.032 fold
[7]; Psen2 mutation microglia, group 30, chlorpromazine 0.5 μM
  REV-ERBα protein expression level (in words): restored to the level in the wild-type group
[8]; [13]
  Inflammatory cytokine secreted CCL2 (serum): 107.403 pg/mL
  Inflammatory cytokine secreted CCL5 (serum): 93.240 pg/mL
  Inflammatory cytokine secreted CXCL1 (serum): 173.999 pg/mL
  Inflammatory cytokine secreted IL-6 (serum): 44.280 pg/mL
  Inflammatory cytokine secreted TNF-α (serum): 71.248 pg/mL
[8]; Psen2 mutation mice, group 40 vs 39, LPS 0.35 μg/kg
  production of the circadian clock-controlled cytokines in serum (in words): remarkably repressed
